Laboratory results published in patent US20050100983A1, “Cell-free methods for identifying compounds that affect toll-like receptor 9 (TLR9) signaling” (Coley Pharmaceutical GmbH, priority 2003, published 2005).

Biological target: T1, mTLR9ect (extracellular domain of murine TLR9 fused to human IgG1-Fc) (Mus musculus, UniProt Q9EQU3)
T1 construct: mTLR9ect (aa 1-816); made in house
T1 sequence (Q9EQU3 26-816): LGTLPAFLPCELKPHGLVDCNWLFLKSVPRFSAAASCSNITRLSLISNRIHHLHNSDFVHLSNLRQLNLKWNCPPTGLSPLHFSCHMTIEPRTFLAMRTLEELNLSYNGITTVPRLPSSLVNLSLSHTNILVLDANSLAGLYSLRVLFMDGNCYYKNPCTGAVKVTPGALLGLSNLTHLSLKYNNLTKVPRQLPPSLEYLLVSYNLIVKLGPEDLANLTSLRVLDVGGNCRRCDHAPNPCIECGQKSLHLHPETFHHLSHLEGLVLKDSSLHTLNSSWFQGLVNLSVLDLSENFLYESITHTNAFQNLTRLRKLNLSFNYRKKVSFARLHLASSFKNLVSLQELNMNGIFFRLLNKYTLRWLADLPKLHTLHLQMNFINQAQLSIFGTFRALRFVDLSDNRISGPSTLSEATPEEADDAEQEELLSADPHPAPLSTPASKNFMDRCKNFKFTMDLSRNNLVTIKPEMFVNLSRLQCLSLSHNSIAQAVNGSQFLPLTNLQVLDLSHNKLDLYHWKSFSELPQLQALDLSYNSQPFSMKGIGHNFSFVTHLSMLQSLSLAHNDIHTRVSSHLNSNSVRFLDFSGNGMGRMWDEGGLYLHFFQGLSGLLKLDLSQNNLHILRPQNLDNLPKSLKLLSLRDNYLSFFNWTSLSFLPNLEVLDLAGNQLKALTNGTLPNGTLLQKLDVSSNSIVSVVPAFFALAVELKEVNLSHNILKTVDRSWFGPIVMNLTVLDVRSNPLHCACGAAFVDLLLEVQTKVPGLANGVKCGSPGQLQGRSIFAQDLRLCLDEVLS
Assay: SPR biosensor analysis of mTLR9ect binding to immobilized CpG-DNA
Text: Protein. Recombinant fusion proteins consisting of the extracellular domain of Toll-like receptors mTLR9ect (aa 1-816), mTLR9ect-mut (see below) (aa 1-816), hTLR9ect (aa 1-815) and mTLR2ect (aa 1-587) fused to human IgG1-Fc were constructed by amplifying the corresponding extracellular domain and ligating the fragment in frame into a pcDNA3.1(−) (Invitrogen, Netherlands) vector containing the coding sequence for human IgG1-Fc. Fusion proteins were stably expressed in HEK 293 cells and purified from cell lysates by protein A affinity chromatography.
SPR biosensor analysis. Real-time binding of TLR9 or TLR2 was measured by surface plasmon resonance biosensor technology using the BiaCore X system (Uppsala, Sweden). For analysis of TLR9 and TLR2 interaction, biotinylated CpG-DNA and non-CpG-DNA, or biotinylated Pam3CysK4 and PHCK4, respectively, were loaded in running buffer (50 mM MES, 150 mM NaCl, 1 mM MgCl2 at pH 6.5) on SA chips precoated with streptavidin (Biacore AB, Uppsala, Sweden). Non-CpG-DNA or PHCK4 (Wiesmuller K H et al. (1989) Vaccine 7:29-33) served as reference for CpG-DNA and Pam3CysK4 interaction (structure or sequence in Table 1). […] TLR proteins were introduced at 200 nM or as indicated in 40 μl running buffer at a flow rate of 10 μl/min. Binding was measured at 25° C. for 750 s (delay time 300 s). […] Sensorgrams were recorded and kinetic data were calculated by the BiaCore Evaluation program (Biacore, version 3.0.1). Regeneration of the chip was performed by injection of 10 μl 50 mM NaOH, 1 M NaCl and extensive re-equilibration.
For detailed analysis of TLR9-CpG-DNA interaction, surface plasmon resonance (SPR) biosensor based technology was used with CpG- and non-CpG-DNA immobilized onto separate flow cells of a streptavidin-coated chip. Under these settings non-CpG-DNA served as reference for specific binding (see Methods). Binding of mTLR9ect to DNA was CpG-sequence-specific and increased in a dose-dependent manner. […] Using the 1:1 binding model of the BioEvaluation software as fitting algorithm and on the basis of four different mTLR9ect concentrations ranging from 50 to 300 nM, a dissociation constant (Kd) of 200 nM was obtained with low chi-squared residuals (4,76). […] Weber AN et al. (2003) Nat. Immunol. 4:794-800. Furthermore the concentration of CpG-DNA 1668 (SEQ ID NO:1) for half-maximal activation of murine TLR9 has been recently calculated as 70 nM which correlates well with the KD obtained here. Bauer S et al. (2001) Proc. Natl. Acad. Sci. U.S.A. 98:9237-9242. […] This difference in affinity correlates with the observed species-specific variance in CpG-motif recognition, as well as activation potential. Bauer S et al. (2001) Proc. Natl. Acad. Sci. U.S.A. 98:9237-9242.

Substance: 5′-TCCATGACGTTCCTGATGCT-3′ (chemistry not given here) [CpG-DNA 1668, synthetic CpG oligodeoxynucleotide, TLR9 ligand]
- Kd (1:1 binding model, four mTLR9ect concentrations 50 to 300 nM, running buffer pH 6.5, 25° C., read-out: dissociation constant (Kd)): 200 nM
- Binding of mTLR9ect to DNA (SPR, non-CpG-DNA as reference, pH 6.5): CpG-sequence-specific
- release of bound mTLR9ect by free injected DNA (competition, free DNA added in dissociation phase): dose dependently released bound mTLR9ect
- TLR9 binding to CpG-DNA (pH 6.5 or 5.5): strong
- dissociation of TLR9 from CpG-DNA (pH 6.5 or 5.5): weak dissociation
- effect of pre-incubation of mTLR9ect with DNA on binding to chip-immobilized CpG-DNA (pre-incubation prior to SPR analysis): abolished binding
